According to US10143695B2 (priority 2016, dated 2018):
pIC50: −log10 of the molar value.

How the values were obtained:
Type in all cases: cell-based
[1] = tested on: MCF7 cells (HER2 low expressing levels cells); assay: CellTiter-Glo cell viability assay, MCF7; conditions: Homo sapiens, MCF7; PBD compounds, 72 h incubation
Procedure: (§1) PBD compounds and conjugates thereof were evaluated for their antiproliferation properties in tumor cell lines in vitro using CellTiter-Glo® (Promega Corp). Cells were plated in black walled 96-well plate and allowed to adhere overnight at 37° C. in a humidified atmosphere of 5% CO2. BT474, SKBR3, NCI-N87 cells (HER2 expressing cells), JIMT1 cells (HER2 medium expression level cells) and MCF7 cells (HER2 low expressing levels cells) and were plated at a density of 5,000 cells per well. The next day the medium was replaced with 50 μL fresh medium and 50 μL of 2× stocks of PBD compounds or antibody-PBD conjugate were added to appropriate wells, mixed and incubated for 72 h. CellTiter-Glo® reagent was added to the wells at room temperature and the luminescent signal was measured after 10 min using a SpectraMax M5 plate reader (Molecular Devices). Dose response curves were generated using SoftMax Pro software. IC50 values were determined from four-parameter curve fitting.

[2] = tested on: NCI-N87 cells (HER2 expressing cells); assay: CellTiter-Glo cell viability assay, NCI-N87; conditions: Homo sapiens, NCI-N87; PBD compounds, 72 h incubation
Procedure: as §1

[3] = tested on: SKBR3 cells (HER2 expressing cells); assay: CellTiter-Glo cell viability assay, SKBR3; conditions: Homo sapiens, SK-BR-3; PBD compounds, 72 h incubation
Procedure: as §1

[4] = tested on: JIMT1 cells (HER2 medium expression level cells); assay: CellTiter-Glo cell viability assay, JIMT1; conditions: Homo sapiens, JIMT-1; PBD compounds, 72 h incubation
Procedure: as §1

[5] = tested on: BT474 cells (HER2 expressing cells); assay: CellTiter-Glo cell viability assay, BT474; conditions: Homo sapiens, BT-474; PBD compounds, 72 h incubation
Procedure: as §1

| SMILES | pIC50 [1] | pIC50 [2] | pIC50 [3] | pIC50 [4] | pIC50 [5] |
| --- | --- | --- | --- | --- | --- |
| C=C1CC2C=Nc3cc(OCCCC(=O)Nc4cn(C)c(C(=O)Nc5cc(C(=O)Nc6cc(C(=O)NCCCO)n(C)c6)n(C)c5)n4)c(OC)cc3C(=O)N2C1 (stereo in doubt) [Compound 56, (S,Z)-N-(5-(5-(3-hydroxypropylcarbamoyl)-1-methyl-1H-pyrrol-3-ylcarbamoyl)-1-methyl-1H-pyrrol-3-yl)-4-(4-(7-methoxy-2-methylene-5-oxo-2,3,5,11a-tetrahydro-1H-benzo[e]pyrrolo[1,2-a][1,4]diazepin-8-yloxy)butanamido)-1-methyl-1H-imidazole-2-carboxamide] | 7.26 | 7.87 | 8.10 | 8.05 | 7.63 |
| C=C1C[C@H]2C=Nc3cc(OCCCC(=O)Nc4cn(C)c(C(=O)Nc5cc(C(=O)NCc6ccc(N)cc6)n(C)c5)n4)c(OC)cc3C(=O)N2C1 [Compound 3A, (S,Z)-N-(5-(4-aminobenzylcarbamoyl)-1-methyl-1H-pyrrol-3-yl)-4-(4-(7-methoxy-2-methylene-5-oxo-2,3,5,11a-tetrahydro-1H-benzo[e]pyrrolo[1,2-a][1,4]diazepin-8-yloxy)butanamido)-1-methyl-1H-imidazole-2-carboxamide] | 6.67 | 7.85 | 8.05 | 7.04 | 7.16 |
| C=C1C[C@H]2C=Nc3cc(OCCCC(=O)Nc4cn(C)c(C(=O)Nc5cc(C(=O)Nc6cc(C(=O)NCc7ccc(N)cc7)n(C)c6)n(C)c5)n4)c(OC)cc3C(=O)N2C1 [Compound 4A, (S,Z)-N-(5-(5-(4-aminobenzylcarbamoyl)-1-methyl-1H-pyrrol-3-ylcarbamoyl)-1-methyl-1H-pyrrol-3-yl)-4-(4-(7-methoxy-2-methylene-5-oxo-2,3,5,11a-tetrahydro-1H-benzo[e]pyrrolo[1,2-a][1,4]diazepin-8-yloxy)butanamido)-1-methyl-1H-imidazole-2-carboxamide] | 6.00 | 7.62 | 8.03 | 7.94 | 7.57 |
| C=C1C[C@H]2C=Nc3cc(OCCCC(=O)Nc4cn(C)c(C(=O)Nc5cc(C(=O)N6Cc7ccc(N)cc7C6)n(C)c5)n4)c(OC)cc3C(=O)N2C1 [Compound 5A, (S,Z)-N-(5-(5-aminoisoindoline-2-carbonyl)-1-methyl-1H-pyrrol-3-yl)-4-(4-(7-methoxy-2-methylene-5-oxo-2,3,5,11a-tetrahydro-1H-benzo[e]pyrrolo[1,2-a][1,4]diazepin-8-yloxy)butanamido)-1-methyl-1H-imidazole-2-carboxamide] | 7.62 | 8.28 | 9.01 | 7.80 | 8.54 |
| C=C1C[C@H]2C=Nc3cc(OCCCC(=O)Nc4cn(C)c(C(=O)Nc5cc(C(=O)Nc6cc(C(=O)N7Cc8ccc(N)cc8C7)n(C)c6)n(C)c5)n4)c(OC)cc3C(=O)N2C1 [Compound 6A, (S,Z)-N-(5-(5-(5-aminoisoindoline-2-carbonyl)-1-methyl-1H-pyrrol-3-ylcarbamoyl)-1-methyl-1H-pyrrol-3-yl)-4-(4-(7-methoxy-2-methylene-5-oxo-2,3,5,11a-tetrahydro-1H-benzo[e]pyrrolo[1,2-a][1,4]diazepin-8-yloxy)butanamido)-1-methyl-1H-imidazole-2-carboxamide] | 7.77 | 8.38 | 8.82 | 8.05 | 8.28 |
| C=C1C[C@H]2C=Nc3cc(OCCCC(=O)Nc4cn(C)c(C(=O)Nc5cc(C(=O)Nc6cc(C(=O)n7ccc8cc(OC)ccc87)n(C)c6)n(C)c5)n4)c(OC)cc3C(=O)N2C1 [Compound 7A] | 8.57 | 9.52 | 9.82 | 8.96 | 9.22 |
| C=C1C[C@H]2C=Nc3cc(OCCCC(=O)Nc4cn(C)c(C(=O)Nc5cc(C(=O)Nc6cc(C(=O)n7ccc8cc(N)ccc87)n(C)c6)n(C)c5)n4)c(OC)cc3C(=O)N2C1 [Compound 8, (S,Z)-N-(5-((5-(5-amino-1H-indole-1-carbonyl)-1-methyl-1H-pyrrol-3-yl)carbamoyl)-1-methyl-1H-pyrrol-3-yl)-4-(4-((7-methoxy-2-methylene-5-oxo-2,3,5,11a-tetrahydro-1H-benzo[e]pyrrolo[1,2-a][1,4]diazepin-8-yl)oxy)butanamido)-1-methyl-1H-imidazole-2-carboxamide] | 8.40 | 9.37 | 9.82 | 8.66 | 9.08 |
| C=C1C[C@H]2C=Nc3cc(OCCCC(=O)Nc4cn(C)c(C(=O)Nc5cc(C(=O)Nc6cc(C(=O)n7ccc8cc(C(=O)OC)ccc87)n(C)c6)n(C)c5)n4)c(OC)cc3C(=O)N2C1 [Compound 8A, (S,Z)-methyl 1-(4-(4-(4-(4-(7-methoxy-2-methylene-5-oxo-2,3,5,11a-tetrahydro-1H-benzo[e]pyrrolo[1,2-a][1,4]diazepin-8-yloxy)butanamido)-1-methyl-1H-imidazole-2-carboxamido)-1-methyl-1H-pyrrole-2-carboxamido)-1-methyl-1H-pyrrole-2-carbonyl)-1H-indole-5-carboxylate] | 8.43 | 8.54 | 9.85 | 9.26 | 9.08 |
| C=C1C[C@H]2C=Nc3cc(OCCCC(=O)Nc4cn(C)c(C(=O)Nc5cc(C(=O)Nc6cc(C(=O)n7ccc8c(N)cccc87)n(C)c6)n(C)c5)n4)c(OC)cc3C(=O)N2C1 [Compound 11A, (S,Z)-N-(5-(5-(4-amino-1H-indole-1-carbonyl)-1-methyl-1H-pyrrol-3-ylcarbamoyl)-1-methyl-1H-pyrrol-3-yl)-4-(4-(7-methoxy-2-methylene-5-oxo-2,3,5,11a-tetrahydro-1H-benzo[e]pyrrolo[1,2-a][1,4]diazepin-8-yloxy)butanamido)-1-methyl-1H-imidazole-2-carboxamide] | 7.83 | 8.82 | 9.17 | 7.95 | 8.40 |
| C=C1C[C@H]2C=Nc3cc(OCCCC(=O)Nc4cn(C)c(C(=O)Nc5cc(C(=O)n6ccc7cc(N)ccc76)n(C)c5)n4)c(OC)cc3C(=O)N2C1 [Compound 12, (S,Z)-N-(5-(5-amino-1H-indole-1-carbonyl)-1-methyl-1H-pyrrol-3-yl)-4-(4-((7-methoxy-2-methylene-5-oxo-2,3,5,11a-tetrahydro-1H-benzo[e]pyrrolo[1,2-a][1,4]diazepin-8-yl)oxy)butanamido)-1-methyl-1H-imidazole-2-carboxamide] | 7.86 | 8.15 | 9.40 | 8.36 | 8.70 |
| C=C1C[C@H]2C=Nc3cc(OCCCC(=O)Nc4cn(C)c(C(=O)Nc5cc(C(=O)Nc6cc(C(=O)n7ccc8ccc(N)cc87)n(C)c6)n(C)c5)n4)c(OC)cc3C(=O)N2C1 [Compound 13A, (S,Z)-N-(5-(5-(6-amino-1H-indole-1-carbonyl)-1-methyl-1H-pyrrol-3-ylcarbamoyl)-1-methyl-1H-pyrrol-3-yl)-4-(4-(7-methoxy-2-methylene-5-oxo-2,3,5,11a-tetrahydro-1H-benzo[e]pyrrolo[1,2-a][1,4]diazepin-8-yloxy)butanamido)-1-methyl-1H-imidazole-2-carboxamide] | 8.36 | 9.14 | 9.55 | 8.44 | 8.60 |
| C=C1C[C@H]2C=Nc3cc(OCCCC(=O)Nc4cn(C)c(C(=O)Nc5cc(C(=O)Nc6cc(C(=O)n7ccc8cc(SC)ccc87)n(C)c6)n(C)c5)n4)c(OC)cc3C(=O)N2C1 [Compound 19, (S,Z)-4-(4-(7-methoxy-2-methylene-5-oxo-2,3,5,11a-tetrahydro-1H-benzo[e]pyrrolo[1,2-a][1,4]diazepin-8-yloxy)butanamido)-1-methyl-N-(1-methyl-5-(1-methyl-5-(5-(methylthio)-1H-indole-1-carbonyl)-1H-pyrrol-3-ylcarbamoyl)-1H-pyrrol-3-yl)-1H-imidazole-2-carboxamide] | 8.68 | 9.46 | 9.70 | 8.87 | 9.23 |
| C=C1C[C@H]2C=Nc3cc(OCCCC(=O)Nc4cn(C)c(C(=O)Nc5cc(C(=O)Nc6cc(C(=O)n7ccc8cc(S(C)(=O)=O)ccc87)n(C)c6)n(C)c5)n4)c(OC)cc3C(=O)N2C1 [Compound 20, (S,Z)-4-(4-(7-methoxy-2-methylene-5-oxo-2,3,5,11a-tetrahydro-1H-benzo[e]pyrrolo[1,2-a][1,4]diazepin-8-yloxy)butanamido)-1-methyl-N-(1-methyl-5-(1-methyl-5-(5-(methylsulfonyl)-1H-indole-1-carbonyl)-1H-pyrrol-3-ylcarbamoyl)-1H-pyrrol-3-yl)-1H-imidazole-2-carboxamide] | 6.69 | 7.59 | 8.26 | 7.70 | 6.90 |
